# Results as given in patent publication US11028127B2, “Peptides capable of reactivating p53 mutants” (Yeda Research and Development Co. Ltd., priority 2013, dated 2021).
# Where no end group is shown, it is not given here. The star is where a group is joined. Myristoyl = CCCCCCCCCCCCCC(=O)*
# Test system: Mut-p53
# Assay: Total activity score over combined assays (Table 8)
# Design: scale not given here
# Settings: for Activity Score: Table 10 summary of activity of the peptides tested; for AS (Activity Score): total score of Table 7; for PCR, activity score / Conformation, activity score: Table 8; for PCR, activity score: head span not shown; for Conformation, activity score: the 14 score columns c4-c17 stand under the heads Conformation, DNA binding, Viability, PCR
# Text: Several alternative and complementary methods to screen lead peptide candidates for conformational and functional effects on Mut-p53 were employed. For increased penetration of peptide across cell membranes each peptide contains 3-6 Arginine residues either as part of its sequence or added either at its N-terminus or its C-terminus. […] In-vitro based assays for evaluation were first performed, such as ELISA for assessment of p53 conformation and sequence-specific DNA binding of p53.
Substance,Activity Score,AS (Activity Score),"PCR, activity score","Conformation, activity score"
pCAP148 (WNHHHSTPHPRRRRRRRRRR),43,43,,
pCAP59 (FLIRRSG),9,9,,
pCAP20 (HHPWTHHQRWS),13,13,,
pCAP223 (SPWTHERRCRQR),0,,,
pCAP294 (FKPERFPQNDRRR),0,,,
pCAP249 (Myristoyl-DERTGKTRRYIDTRDIRR),6,,,
pCAP86 (FGSHHEL),0,0,,
pCAP46 (ASWQALALYAAGW),34,34,,
pCAP100 (FPGHTIH),19,19,,
pCAP213 (RRIKMIRTSESFIQHIVS),5,,,
pCAP121 (LTLMRLRIIG),5,5,,
pCAP279 (RDTIERPEIRR),6,,,
pCAP5 (LEVIYMI),2,2,,
pCAP157 (SFILFIRRGRLGRKKRRQRRRP),37,37,,
pCAP165 (SLLIG),0,0,,
pCAP243 (RRCRSILPLLLLSR),2,,,
pCAP17 (LHSKTLVL),23,23,,
pCAP214 (RRRESEQRSISLHHHST),2,,,
pCAP19 (NPNTYVPHWMRQ),0,0,,
pCAP124 (VMVLFRILRGSM),2,2,,
pCAP298 (RRIRDPLGNEHE),3,,,
pCAP309 (HPHVILPRIRIRIR),0,,,
pCAP270 (SPHPPY),0,,,
pCAP224 (RRKSEPHSLSGGYQTGAD),2,,,

Substance,Activity Score,AS (Activity Score),"PCR, activity score","Conformation, activity score"
pCAP326 (Myristoyl-RRHNAHHSTPHPDDR),53,,4,3
pCAP164 (PLTLI),0,0,,
pCAP62 (YELPHHAYPA),10,10,,
pCAP238 (TSPHPSLPRHIYPRR),6,,,
pCAP319 (SHDFYPHWMRERIR),3,,,
pCAP312 (RRPRIPDYIL),3,,,
pCAP78 (GESFVQHVFRQN),0,0,,
pCAP107 (DRLSVFLFIM),0,0,,
pCAP163 (LTLS),4,4,,
pCAP221 (Myristoyl-RRKHNKHRPEPDSDER),60,,6,3
pCAP6 (LGIDEDEETETAPE),5,5,,
pCAP103 (LRRQLQL),3,3,,
pCAP7 (SPLQTPAAPGAAAGPALSPV),6,6,,
pCAP239 (REGFYGPWHEQRRR),4,,,
pCAP301 (Myristoyl-IRGRIRIIRRIR),12,,,
pCAP53 (ILVIIQRIM),3,3,,
pCAP245 (NHITNGGEEDSDCSSRRRRL),8,,,
pCAP90 (SCRCRLR),12,12,,
pCAP225 (HTIHSISDFPEPPDRRRR),3,,,
pCAP70 (SILTLSRGRKKRRQRRRR),33,33,,
pCAP178 (RRVI),0,0,,
pCAP261 (RRRQPLPSAPENEE),5,,,
pCAP218 (RREVTELHHTHEDRR),0,,,
pCAP281 (Myristoyl-RDFILFIRRLGRR),3,,,

Substance,Activity Score,AS (Activity Score),"PCR, activity score","Conformation, activity score"
pCAP39 (DSLHSTY),2,2,,
pCAP32 (TSPLQSLK),4,4,,
pCAP168 (CRIIR),0,0,,
pCAP263 (YDDEHNHHPHHSTHRRR),0,,,
pCAP22 (SLLIGFGIIRSR),5,5,,
pCAP222 (RYEENNGVNPPVQVFESRTR),4,,,
pCAP217 (HSTPHPPQPPERRR),2,,,
pCAP54 (IRGRIIR),26,26,,
pCAP134 (IRILMFLIGCGRRRRRRRR),40,40,,
pCAP105 (SRIVLGW),5,5,,
pCAP162 (SILT),2,2,,
pCAP287 (RDFERTIVDI),8,,,
pCAP113 (HTTAHTH),3,3,,
pCAP302 (LRIEPIRIR),6,,,
pCAP27 (VHEVTHHWL),5,5,,
pCAP84 (GRRRFCM),0,0,,
pCAP133 (SLLIGFGIIRSRRRRRRRR),10,10,,
pCAP73 (SCRCRLRGDRGDR),0,0,,
pCAP212 (Myristoyl-REEETILIIRRR),3,,,
pCAP236 (RRRSTNTFLGEDFDQ),0,,,
pCAP264 (RRRREVHTIHQHGIVHSD),0,,,
pCAP215 (RRDTFDIRILMAF),0,,,
pCAP172 (EFHS),0,0,,
pCAP175 (DSPR),0,0,,

Substance,Activity Score,AS (Activity Score),"PCR, activity score","Conformation, activity score"
pCAP122 (HSYSPYYTFRQH),5,5,,
pCAP244 (RRVSELQRNKHGRKHEL),5,,,
pCAP131 (LPNPPERHHRRRRRRRRRRR),18,18,,
pCAP322 (RRIRDPQIK(Myristoyl)LEIHFSHID; not fully specified; printed as RRIRDPQIK-myrLEIHFSHID),0,,,
pCAP257 (Myristoyl-HSSHHHPTVQHRR),8,,,
pCAP202 (DEDAKFRIRILMRR),8,,,3
pCAP14 (HHFSHHWKT),9,9,,
pCAP253 (TGKTFVKRHLTEFEKKYR),0,,,
pCAP226 (DDSDNRIIRYRR),6,,,
pCAP153 (YWSAPQPATRRRRRRRRRRR),6,6,,
pCAP289 (RHNHIRPDNQ),6,,,
pCAP65 (THFSHHLKHRRRRRRRRRR),17,17,,
pCAP120 (SIRTLGRFLIIRV),3,3,,
pCAP96 (GTVDHHA),0,0,,
pCAP296 (RPADRIRR),0,,,
pCAP325 (Myristoyl-RRIRDPRILLLHFD),61,,6,4
pCAP43 (TDSHSHH),15,15,,
pCAP67 (LHSKTLVLGGGRRRRGDR),2,2,,
pCAP87 (HANLHHT),37,37,,
pCAP280 (Myristoyl-RYRRLILEIWRR),6,,,
pCAP266 (HHRLSYFIVRRHSTHASR),2,,,
